Measurements published in patent US20150031872A1, “METHOD FOR SCREENING ANTICANCER DRUGS, AND ANTICANCER DRUG THAT INDUCES CELL DEATH AND USES SUBSTANCE THAT INCREASES GRANZYME M ACTIVITY AS ACTIVE INGREDIENT” (LSIP, LLC, priority 2012, published 2015).
Values belong to the compound of their own block, whether it stands above or below them. Peptide text beside a SMILES is read from it. * marks the point of attachment. CH2Cl = ClC*

Tests used:
HL60 cells [1] = assay: Viable cell count by tryptan blue method; type: cell-based, human; conditions: inhibitor alone 0.75 mg/ml, 14 hours
Experimental: (§1) Ac-KVPL-CMK, which is an inhibitor specific to granzyme M, was added to the culture medium (5 μM AraC) in an amount making a final concentration of 0.75 mg/ml, and then pre-incubated. To 48 well plates, 5×10^5 of each cell (U937 cells and HL60 cells) were seeded, and culturing was initiated with 200 μl of culture medium per well. Fourteen hours after culturing initiation, the number of viable cells was measured by the tryptan blue method (mixing a cell suspension and tryptan blue solution in 1:1, placing in a hemocytometer, and counting the number of cells using an optical microscope). It should be noted that Ac-KVPL-CMK was synthesized based on the tertiary structure of granzyme M (L. Wu et. al., Structural basis for proteolytic specificity of the human apoptosis-inducing granzyme M, J. Immunol., 2009; 183: 421-429).

U937 cells [2] = assay: Viable cell count by tryptan blue method; type: cell-based, human; conditions: inhibitor alone 0.75 mg/ml, 14 hours
Experimental: as §1, with “Ac-KVPL-CMK, which is an inhibitor specific to granzyme M, was added to the culture medium (5 μM AraC) in an amount making a final concentration of 0.75 mg/ml, and then pre-incubated.” left out

granzyme M in U937 cells [3] = assay: Western blot, expression of granzyme M; type: cell-based, human; conditions: 5 μM AraC, 0 h, 1, 3 and 5 hours, FIG. 4
Experimental: (§2) Using U937 cells, Colo201 cells (negative control) and KHYG-1 cells (positive control), which are human NK cells, 5 μM of AraC was added to the culture medium, and culturing was carried out. Immediately after culturing initiation (0 h), after 1 hour, after 3 hours and after 5 hours, cells were recovered from the cell medium, and protein groups were extracted from the cells. The amount of protein group was measured, and a certain amount of protein group was molecular weight fractionated by way of electrophoresis of a conventional method.
By way of western blot of a conventional method, the expression of granzyme M was detected. […] The expression of granzyme M in U937 cells, which are cancer cells, is a novel discovery that had not been known conventionally. […] It should be noted that GZMM Antibody (catalog number: AP6792c) by Abgent was used as the granzyme M antibody.

perforin in HL60 cells = assay: Western blot, expression of perforin; type: cell-based, human; conditions: 5 μM AraC, FIG. 6
Experimental: as §2
(§3) Except for the point of using HL60 cells and KHYG-1 cells (positive control section), the expression of granzyme M and perforin was examined at the same conditions as Test Example 3.

[4] = system: nucleophosmin (NPM) in HL60; assay: Western blot of nucleophosmin (NPM) fragments; type: cell-based, human; conditions: after AraC administration, FIG. 3A
From the text: (§4) By the same method as FIG. 2C, protein groups extracted from the respective cells of U937, HL60 and Colo201 were molecular weight fractionated by way of electrophoresis of a conventional method, and the behavior of nucleophosmin (NPM), which is a cell survival factor (anti-apoptotic factor), was further investigated by the western blot method of a conventional method. It should be noted that monoclonal anti-GB23 (nucleophosmin/NPM) (catalog number B0556), which is an anti-NPM antibody, was purchased from Sigma-Aldrich (Saint Louis, Mo., USA).

[5] = system: nucleophosmin (NPM) in Colo201; assay: Western blot of nucleophosmin (NPM) fragments; type: cell-based, human; conditions: after AraC administration, FIG. 3A
From the text: as §4

U937 cells [6] = assay: Cell growth / viability, Cell Counting Kit 8 (WST-8); type: cell-based, human; conditions: AraC 1, 5, 10 and 50 μm, 24 hours, FIG. 2A, p<0.01
Experimental: (§5) Using U937 cells and HL60 cells, which are human leukemia cells, and Colo201, which are human colon cancer cells (all purchased from cell bank), 3×10^3 of each cell were seeded in 96 well plates, and then cultured with 100 μl of RPMI cell medium (containing 10% fetal bovine serum (FBS), 2 mM L-glutamine, 100 units/ml penicillin, 100 μg/ml streptomycin, 250 ng/ml amphoterin B) per each well. At this time, AraC (cylocide) being used in the treatment of acute myelocytic leukemia by conventional pathology was added to the culture medium at the respective concentrations of 1, 5, 10 and 50 μm, and cultured under the conditions of 37° C. and 5% CO2 for 24 hours. Subsequently, 10 μl of WST-8 solution was placed per 1 well, and cultured at 37° C. for 4 hours.
(§6) The growth of cells was measured using a Cell Counting Kit 8 (Dojindo). This method is a measurement method establishing the dehydrogenase activity in viable cells as an index, and performs measurement of viable cell count based on WST-8 (2-(2-methoxy-4-nitrophenyl)-3-(4-nitrophenyl)-5-(2,4-disulfophenyl)-2H-tetrazolium, monosodium salt), which is a tetrazolium salt, being reduced to form formazan. More specifically, using a spectrophotometer Multiscan JX (Thermo Labsystems, Waltham, Mass.), the absorbance at 450 nm was measured, and the absorbance at 690 nm was used as the reference. The vertical axis in the graph of FIG. 2A represents the extent of cell viability by relative value.

HL60 cells [7] = assay: as above; type: cell-based, human; conditions: AraC 1, 5, 10 and 50 μm, 24 hours, FIG. 2A, p<0.01
Experimental: as §5, §6

Colo201 = assay: as above; type: cell-based, human; conditions: AraC 1, 5, 10 and 50 μm, 24 hours, FIG. 2A
Experimental: as §5, §6

granzyme M in HL60 cells [8] = assay: Western blot, expression of granzyme M; type: cell-based, human; conditions: 5 μM AraC, FIG. 6
Experimental: as §2, §3

granzyme M in U937 cells [9] = target: T1, granzyme M in U937 cells (Homo sapiens, UniProt P51124); assay: Granzyme M activity in extracted protein group (substrate, OD 405 nm); type: cell-based; conditions: 5 μM AraC, 0 h, 3, 5 and 7 hours, FIG. 7
T1 construct: endogenous in cells; host or cells: U937, HL60
T1 sequence (P51124 26-257): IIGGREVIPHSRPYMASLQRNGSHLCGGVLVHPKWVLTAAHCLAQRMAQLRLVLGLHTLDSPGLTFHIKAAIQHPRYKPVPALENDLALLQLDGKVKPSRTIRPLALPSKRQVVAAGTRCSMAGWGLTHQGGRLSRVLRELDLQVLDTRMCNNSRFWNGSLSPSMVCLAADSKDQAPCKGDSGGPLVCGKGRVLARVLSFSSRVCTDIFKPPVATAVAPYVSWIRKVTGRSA
Experimental: (§7) At the same conditions (5 μM AraC) as Test Example 1, U937 cells, HL60 cells and KHYG-1 cells (positive control section) were cultured, cells were recovered from the culture medium immediately after culturing initiation (0 h), after 3 hours, after 5 hours and after 7 hours, and the protein groups were extracted from the cells.
(§8) To a measurement buffer (100 mM HEPES, 50 mM CaCl2, pH 7.4), 30 μg of protein group was introduced, and after adding substrate in an amount for a concentration of 200 μM, was incubated at 37° C. for 1 hour, and the absorbance at OD 405 nm was measured. It should be noted that the substrate was one synthesized by referencing Sami Mahrus, Walter Kisiel, and Charles S. Craik, Granzyme M is a regulatory protease that inactivates proteinase inhibitor 9, an endogenous inhibitor of granzyme B, J. Biol. Chem., 279, pp. 54275-54282, 2004. The vertical axis in FIG. 7 is an activity relative value for granzyme M calculated based on the absorbance.
Next, using protein groups arrived at by administering serine protease inhibitor (50 μM TPCK) to the culture medium, culturing U937 cells under the same conditions for 7 hours, and recovering, the absorbance was measured in the same way as above. The vertical axis in FIG. 3 is the activity relative value for granzyme M calculated based on the absorbance.

[10] = system: nucleophosmin (NPM) in U937; assay: Western blot of nucleophosmin (NPM) fragments; type: cell-based, human
From the text: as §4
NPM fragments were recovered by the immunoprecipitation method, and the N-terminal amino acids at the cleavage site of NPM were analyzed to carry out identification of the protease participating in the cleavage of NPM. It should be noted that “LC” in FIG. 3B is a light chain of the antibody used in immunoprecipitation.

perforin in U937 cells = assay: Western blot, expression of perforin; type: cell-based, human; conditions: 5 μM AraC, FIG. 5
Experimental: Using U937 cells, Colo201 cells (negative control) and KHYG-1 cells (positive control), which are human NK cells, 5 μM of AraC was added to the culture medium, and culturing was carried out. Immediately after culturing initiation (0 h), after 1 hour, after 3 hours and after 5 hours, cells were recovered from the cell medium, and protein groups were extracted from the cells. The amount of protein group was measured, and a certain amount of protein group was molecular weight fractionated by way of electrophoresis of a conventional method. The expression of perforin was detected by way of western blot of a conventional method. […] It should be noted that Mouse Anti-Human Perforin, Monoclonal Antibody (catalog number: 3465-6-250) by Mabtech was used as the perforin antibody.

granzyme M in HL60 cells [11] = target: T2, granzyme M in HL60 cells (Homo sapiens, UniProt P51124); assay: Granzyme M activity in extracted protein group (substrate, OD 405 nm); type: cell-based; conditions: 5 μM AraC, 0 h, 3, 5 and 7 hours, FIG. 7
T2 construct: endogenous in cells; host or cells: U937, HL60
T2 sequence (P51124 26-257): T1 sequence (P51124 26-257)
Experimental: as §7, §8

[12] = system: PARP and caspase-3 in U937 cells; assay: Expression of apoptosis associated proteins after AraC; type: cell-based, human; conditions: 5 μM AraC, 0 h, 3 hours, 6 hours, FIG. 2C
Experimental: Immediately after culturing start (0 h) under the administration of 5 μM of AraC, after 3 hours and after 6 hours, the expression of apoptosis associated proteins of U937 cells was measured.

granzyme M in Hela cells = target: T3, granzyme M in Hela cells (Homo sapiens, UniProt P51124); assay: Granzyme M activity in extracted protein group (substrate, OD 405 nm); type: cell-based; conditions: CDDP 50 μM, 24 hours culture, incubation 10 min, 8 hr (P<0.05), 21 hr (P<0.01) vs. control, FIG. 11
T3 construct: endogenous in cells; host or cells: Hela
T3 sequence (P51124 26-257): T1 sequence (P51124 26-257)
Experimental: as §8
Using Hela cells, which are human solid carcinoma cells, the action causing granzyme M activity of CDDP 50 μM conventionally used as a curative drug for solid carcinoma was investigated by culturing Hela cells for 24 hours at the same conditions as Test Example 5. The vertical axis in FIG. 11 is the activity relative value for granzyme M calculated based on the absorbance, and on the horizontal axis are test groups having incubation times of “10 min”, “8 hr” (8 hours) and “21 hr” (21 hours), in which “control” is the substrate without CDDP, and “CDDP” is the substrate and CDDP addition.

Compound: CC(=O)N[C@@H](CCCCN)C(=O)N[C@H](C(=O)N1CCC[C@H]1C(=O)N[C@@H](CC(C)C)C(=O)CCl)C(C)C [granzyme M-specific inhibitor, Ac-KVPL-CMK] (Ac-KVPL-CH2Cl)
- viable cell count, sole administration vs. control group (HL60 cells [1]): significant difference in viable cell count was not confirmed
- viable cell count, sole administration vs. control group (U937 cells [2]): significant difference in viable cell count was not confirmed

Compound: Nc1ccn([C@@H]2O[C@H](CO)[C@@H](O)[C@@H]2O)c(=O)n1 [AraC]
- expression level of granzyme M (granzyme M in U937 cells [3]): unrelated to the elapse of AraC administration time
- expression of perforin (perforin in HL60 cells): not recognized
- fragments of NPM [4]: detected along with the elapse of time
- fragments of NPM [5]: not detected
- cell death (cell viability, relative value) (U937 cells [6]): concentration dependently induced
- cell death (cell viability, relative value) (HL60 cells [7]): concentration dependently induced
- cell death (cell viability, relative value) (Colo201): not induced
- expression level of granzyme M (granzyme M in HL60 cells [8]): tendency of the expression level being exacerbated depending on the time elapsed
- activity of granzyme M (relative value) (granzyme M in U937 cells [9]): increases along with the elapse of time
- cleavage site of NPM fragment (N-terminal amino acid sequence AAED) ([10]; NPM fragments recovered by immunoprecipitation after AraC administration, FIG. 3B): cleaved by Leu-158 of NPM
- fragments of NPM ([10]; U937, after AraC administration, FIG. 3A): detected along with the elapse of time
- expression of perforin (perforin in U937 cells): not induced
- activity of granzyme M (relative value) (granzyme M in HL60 cells [11]): increases along with the elapse of time
- PARP decomposition [12]: decomposed along with the elapse of time
- caspase-3 decomposition [12]: decomposed along with the elapse of time

- activity of granzyme M (relative value) (granzyme M in Hela cells): increased with the elapse of time
Compound: [NH2][Pt]([NH2])([Cl])[Cl] [CDDP, cisplatin]
